From US8728457B2, “Methods of inducing differentiation of stem cells” (priority 2001, dated 2014)

Assays:
P19 EC cells [1] = experiment: Induction of beating muscle in replated P19EC aggregates (hanging drops); assay type: cell-based, mouse
Procedure: END-2 cells and hES cells were cultured as described in Example 1. The hES2 cell line from ES Cell International Pte Ltd was used in all experiments. […] Co-cultures were then grown for up to 6 weeks and scored for the presence of areas of beating muscle from 5 days onwards. HepG2 cells, a carcinoma cell line resembling liver parenchymal cells (Knowles et al, (1980) Science 209:497-9), were cultured in DMEM plus 10% FCS and passaged twice weekly. […] Hanging-drop cultures of P19 EC cells were initiated and maintained in DMEM/Ham's F12 (1:1), as described previously (Mummery et al, 1991), using regular FCS while bulk production of P19 embryoid bodies in the presence or absence of END-2 conditioned medium for isolation of RNA for Northem blotting, was in the presence of charcoal-stripped FCS, as described (Mummery et al, 1991) to reduce background levels of cardiomyocyte differentiation caused by lipophilic substances possibly with retinoid-like activity in FCS. P19 clone 6 were cultured in αMEM and treated αMEM conditioned by END-2 cells. For electrophysiology, beating aggregates were dissociated using collagenase and replated on gelatine-coated coverslips. […]

Brachyury T = experiment: Northern blot of Brachyury T in P19EC aggregates; assay type: cell-based, mouse; details: FIG. 10B
Procedure: (§1) END-2 cells and hES cells were cultured as described in Example 1. The hES2 cell line from ES Cell International Pte Ltd was used in all experiments. […] Co-cultures were then grown for up to 6 weeks and scored for the presence of areas of beating muscle from 5 days onwards. HepG2 cells, a carcinoma cell line resembling liver parenchymal cells (Knowles et al, (1980) Science 209:497-9), were cultured in DMEM plus 10% FCS and passaged twice weekly. […] Hanging-drop cultures of P19 EC cells were initiated and maintained in DMEM/Ham's F12 (1:1), as described previously (Mummery et al, 1991), using regular FCS while bulk production of P19 embryoid bodies in the presence or absence of END-2 conditioned medium for isolation of RNA for Northem blotting, was in the presence of charcoal-stripped FCS, as described (Mummery et al, 1991) to reduce background levels of cardiomyocyte differentiation caused by lipophilic substances possibly with retinoid-like activity in FCS. P19 clone 6 were cultured in αMEM and treated αMEM conditioned by END-2 cells. For electrophysiology, beating aggregates were dissociated using collagenase and replated on gelatine-coated coverslips.
RNA was isolated from P19 aggregates and poly A+ RNA selected, as described previously (Mummery et al, 1990, Dev. Biol. 142: 406413).
Background differentiation levels are reduced virtually to zero if the FCS is passed over an activated charcoal column (DCC-FCS) to remove residual retinoids; in addition, differentiation is blocked by activin (van den Eijnden-van Raaij et al, 1991, Mech. Dev. 33:157-166). […] The P19EC assay system was preferred because these cells are feeder independent for undifferentiated growth. […] Moreover, the induction of Brachyury T is blocked by the additional presence of activin (FIG. 10B), consistent with its ability to block the formation of beating muscle in aggregates. The transient expression of Brachyury T is similar to that observed during early mesoderm differentiation during gastrulation of the mouse embryo.

[2] = test system: hES-derived cardiomyocytes; experiment: Beating of hES-derived cardiomyocytes in response to pharmacological agonists; assay type: cell-based, human; details: hES2/END-2 co-culture derived cardiomyocytes
Procedure: as §1
The majority of the experiments described here were carried out using the hES2 cell line (Reubinoff et al, 2000). […] Oct4 expression thus correlated with phenotypic characteristics of undifferentiated cells. hES cells were subcultured by transferring small clumps of undifferentiated cells either to new, mit.C-treated MEFs or confluent cultures of mit.C-treated END-2 cells. After approximately 5d under these conditions, epithelial cells became evident which over the next few days become fluid-filled cysts (FIG. 1A). […] In addition, by 10 d areas of rhythmically contracting cells in more solid aggregates become evident (FIG. 1A, 3e) with a variety of overall morphologies (FIG. 1B, 3e). […]

P19 EC cells [3] = details: van den Eijnden-van Raaij et al, 1991; cited from earlier work

## C[S+](C)[O-] [DMSO, dimethyl sulphoxide]
P19 EC cells [1]; control, FIG. 10
  cardiomyocyte differentiation of P19EC aggregates: induces cardiomyocyte differentiation
P19 EC cells [1]; day 10, FIG. 10A
  aggregates with beating muscle: All aggregates beat
Brachyury T; aggregation phase, first 3 days
  Brachyury T expression (early mesoderm marker): induced

## C[N+](C)(C)CCOC(N)=O [carbachol]
[2]
  beating of hES-derived cardiomyocytes in response to agonist: upregulated

## CC(C)NCC(O)c1ccc(O)c(O)c1 (stereo not drawn) [isoprenaline]
[2]
  beating of hES-derived cardiomyocytes in response to agonist: upregulated

## CNC[C@H](O)c1cccc(O)c1 [phenylephrine]
[2]
  beating of hES-derived cardiomyocytes in response to agonist: upregulated

## activin
Brachyury T; activin added with DMSO
  effect on DMSO induced Brachyury T expression: blocked
Brachyury T; activin added with END-2 CM
  effect on END-2 CM induced Brachyury T expression: blocked
P19 EC cells [3]
  effect on differentiation of P19EC aggregates to beating muscle: blocked
